The numbers were not newly measured in publication PMC9298787 (The Prostate, 2021), which cites them from elsewhere.

A word on the Cmax: it is the highest concentration seen after dosing.

The conditions of this series: single oral 160 mg enzalutamide, fasting, three matched healthy controls.

Structures are written as SMILES. Values joined by “and” are separate entries in the source; they are usually repeats but may differ in a detail not shown here. Equal values may be shown once.

In the case of `CNC(=O)c1ccc(N2C(=S)N(c3ccc(C#N)c(C(F)(F)F)c3)C(=O)C2(C)C)cc1F` [enzalutamide], the “AUC0‐∞” value was 245.8 µg·h/mL and 224.8 µg·h/mL; the Cmax was 3800 ng/mL and 4600 ng/mL; the t1/2 was 115.3 h and 108.3 h and 111.6 h.
